Experimental data reported in article PMC10819888, “Benzimidazole-Based Derivatives as Apoptotic Antiproliferative Agents: Design, Synthesis, Docking, and Mechanistic Studies” (Molecules, 2024).

How the values were obtained:
Format in all cases: cell-based, human
ACHN = experiment: NCI-60 five-dose assay; conditions: ACHN (Renal Cancer), 48 h; for GI50 / CC50: Homo sapiens; for GI50: read-out: GI50 Conc. per Cell Line; for CC50: read-out: LC50 (the source's name)
MCF7 = experiment: NCI-60 five-dose assay; conditions: MCF7 (Breast Cancer), 48 h; for GI50 / CC50: Homo sapiens; for GI50: read-out: GI50 Conc. per Cell Line; for CC50: read-out: LC50 (the source's name)
OVCAR-8 = experiment: NCI-60 five-dose assay; conditions: OVCAR-8 (Ovarian Cancer), 48 h; for GI50 / CC50: Homo sapiens; for GI50: read-out: GI50 Conc. per Cell Line; for CC50: read-out: LC50 (the source's name)
SN12C = experiment: NCI-60 five-dose assay; conditions: SN12C (Renal Cancer), 48 h; for GI50 / CC50: Homo sapiens; for GI50: read-out: GI50 Conc. per Cell Line; for CC50: read-out: LC50 (the source's name)
OVCAR-5 = experiment: NCI-60 five-dose assay; conditions: OVCAR-5 (Ovarian Cancer), 48 h; for GI50 / CC50: Homo sapiens; for GI50: read-out: GI50 Conc. per Cell Line; for CC50: read-out: LC50 (the source's name)
caspase-8 = experiment: Caspase-8 activation assay; conditions: PC-3 cell line
Description: For more details, see Supplementary Materials. […]
the positive wells exceeds the limits of the instrument. The O.D. values at 450 nm can only be read after the Stop Solution has been added to each well. If using a reader that […]
100 μl of Stop Solution to each well. Tap side of plate gently to mix. The solution in the wells should change from blue to yellow. Read the absorbance of each well at 450 nm having blanked the plate reader against a chromogen blank composed of 100 μl each of Stabilized Chromogen and Stop Solution. Read the plate within 2 hours after adding the Stop Solution. Use a curve fitting software to generate the standard curve. A four- […]
Read the concentrations for unknown samples and controls from the standard curve. Multiply value(s) obtained for sample(s) by the appropriate dilution factor to correct for the dilution in step 3. Samples […]
Diluent Buffer and reanalyzed.
4.2.4. Caspase-8 activation assay
Cells were obtained from American Type Culture Collection, cells were grown in RPMI […]
tested for caspase8, and lysed with Cell Extraction Buffer. This lysate was diluted in […]
caspase-8 content. (Cells are Plated in a density of 1.2 – 1.8 × 10,000 cells/well in a volume of 100µl complete growth medium + 100 ul of the tested compound per well in a 96-well plate for 24 hours before the enzyme assay for Tubulin.). The absorbance of each microwell was read on a spectro-photometer at 450 nm. A standard curve is prepared from 7human Caspase-8 standard dilutions and human Caspase-8 concentration determined.

Melanoma subpanel = experiment: NCI-60 five-dose assay, subpanel; conditions: for GI50: Homo sapiens, Melanoma, average sensitivity of all subpanel cell lines, read-out: GI50 Subpanel MID b; for GI50 Selectivity Ratio (MID a/MID b): Melanoma subpanel
Renal Cancer subpanel = experiment: NCI-60 five-dose assay, subpanel; conditions: for GI50: Homo sapiens, Renal Cancer, average sensitivity of all subpanel cell lines, read-out: GI50 Subpanel MID b; for GI50 Selectivity Ratio (MID a/MID b): Renal Cancer subpanel
NCI-H460 = experiment: NCI-60 five-dose assay; conditions: NCI-H460 (Non-Small Cell Lung Cancer), 48 h; for GI50: read-out: GI50 Conc. per Cell Line
OVCAR-4 = experiment: NCI-60 five-dose assay; conditions: OVCAR-4 (Ovarian Cancer), 48 h; for GI50 / CC50: Homo sapiens; for GI50: read-out: GI50 Conc. per Cell Line; for CC50: read-out: LC50 (the source's name)
NCI-H23 = experiment: NCI-60 five-dose assay; conditions: NCI-H23 (Non-Small Cell Lung Cancer), 48 h; for GI50 / CC50: Homo sapiens; for GI50: read-out: GI50 Conc. per Cell Line; for CC50: read-out: LC50 (the source's name)
NCI/ADR-RES = experiment: NCI-60 five-dose assay; conditions: NCI/ADR-RES (Ovarian Cancer), 48 h; for GI50 / CC50: Homo sapiens; for GI50: read-out: GI50 Conc. per Cell Line; for CC50: read-out: LC50 (the source's name)
HT29 = experiment: NCI-60 five-dose assay; conditions: HT29 (Colon Cancer), 48 h; for GI50 / CC50: Homo sapiens, HT-29; for GI50: read-out: GI50 Conc. per Cell Line; for CC50: read-out: LC50 (the source's name)
SK-OV-3 = experiment: NCI-60 five-dose assay; conditions: SK-OV-3 (Ovarian Cancer), 48 h; for GI50 / CC50: Homo sapiens; for GI50: read-out: GI50 Conc. per Cell Line; for CC50: read-out: LC50 (the source's name)
SW-620 = experiment: NCI-60 five-dose assay; conditions: SW-620 (Colon Cancer), 48 h; for GI50: read-out: GI50 Conc. per Cell Line
RXF 393 = experiment: NCI-60 five-dose assay; conditions: RXF 393 (Renal Cancer), 48 h; for GI50 / CC50: Homo sapiens; for GI50: read-out: GI50 Conc. per Cell Line; for CC50: read-out: LC50 (the source's name)
LOX IMVI = experiment: NCI-60 five-dose assay; conditions: LOX IMVI (Melanoma), 48 h; for GI50 / CC50: Homo sapiens; for GI50: read-out: GI50 Conc. per Cell Line; for CC50: read-out: LC50 (the source's name)
OVCAR-3 = experiment: NCI-60 five-dose assay; conditions: OVCAR-3 (Ovarian Cancer), 48 h; for GI50 / CC50: Homo sapiens; for GI50: read-out: GI50 Conc. per Cell Line; for CC50: read-out: LC50 (the source's name)
RPMI-8226 = experiment: NCI-60 five-dose assay; conditions: RPMI-8226 (Leukemia), 48 h; for GI50 / CC50: Homo sapiens; for GI50: read-out: GI50 Conc. per Cell Line; for CC50: read-out: LC50 (the source's name)
EKVX = experiment: NCI-60 five-dose assay; conditions: EKVX (Non-Small Cell Lung Cancer), 48 h; for GI50 / CC50: Homo sapiens; for GI50: read-out: GI50 Conc. per Cell Line; for CC50: read-out: LC50 (the source's name)

O=C(NN=Cc1ccc([N+](=O)[O-])cc1)c1ccc2[nH]c(-c3ccc(Cl)cc3)nc2c1 [Compound 4c, N′-(4-Nitrobenzylidene)-2-(4-chlorophenyl)-1H-benzimidazole-5-carbohydrazide]
TGI (ACHN): 31.90 µM
GI50 (ACHN): 4.36 µM
CC50 (ACHN): > 100 µM
GI50 (MCF7): 0.582 µM
CC50 (MCF7): 13.3 µM
TGI (MCF7): 2.85 µM
GI50 (OVCAR-8): 2.89 µM
CC50 (OVCAR-8): > 100 µM
TGI (OVCAR-8): 13.70 µM
GI50 (SN12C): 3.14 µM
CC50 (SN12C): > 100 µM
TGI (SN12C): 18.10 µM
GI50 (OVCAR-5): 4.43 µM
CC50 (OVCAR-5): > 100 µM
TGI (OVCAR-5): 37.80 µM
Caspase-8 Conc (caspase-8): 1.90 ng/mL
caspase-8 increase compared to untreated control cell (caspase-8): 16 times
caspase-8 level (caspase-8): 1.90 ng/mL
GI50 (Melanoma subpanel): 2.87 µM
GI50 Selectivity Ratio (MID a/MID b) (Melanoma subpanel): 1.14
GI50 (Renal Cancer subpanel): 4.3 µM
GI50 Selectivity Ratio (MID a/MID b) (Renal Cancer subpanel): 0.76
GI50 (NCI-H460; Homo sapiens): 2.1 µM
TGI (NCI-H460): 4.49 µM
GI50 (OVCAR-4): 2.75 µM
CC50 (OVCAR-4): > 100 µM
TGI (OVCAR-4): 8.64 µM
GI50 (NCI-H23): 1.85 µM
CC50 (NCI-H23): 67.6 µM
TGI (NCI-H23): 11.50 µM
GI50 (NCI/ADR-RES): 12.6 µM
CC50 (NCI/ADR-RES): > 100 µM
TGI (NCI/ADR-RES): >100 µM
TGI (HT29): >100 µM
GI50 (HT29): 3.02 µM
CC50 (HT29): > 100 µM
GI50 (SK-OV-3): 11.4 µM
CC50 (SK-OV-3): > 100 µM
TGI (SK-OV-3): 39.60 µM
GI50 (SW-620; Homo sapiens): 3.44 µM
TGI (SW-620): 10.80 µM
GI50 (RXF 393): 2.03 µM
CC50 (RXF 393): 34 µM
TGI (RXF 393): 7.07 µM
GI50 (LOX IMVI): 1.34 µM
CC50 (LOX IMVI): 7.74 µM
TGI (LOX IMVI): 3.22 µM
GI50 (OVCAR-3): 3.25 µM
CC50 (OVCAR-3): 40.9 µM
TGI (OVCAR-3): 8.23 µM
GI50 (RPMI-8226): 0.461 µM
CC50 (RPMI-8226): > 100 µM
TGI (RPMI-8226): 2.41 µM
TGI (EKVX): 21.20 µM
GI50 (EKVX): 3.19 µM
CC50 (EKVX): > 100 µM

O=C(NN=Cc1ccc(Cl)cc1)c1ccc2[nH]c(-c3ccc(Cl)cc3)nc2c1 [Compound 4e, N′-(4-Chlorobenzylidene)-2-(4-chlorophenyl)-1H-benzimidazole-5-carbohydrazide]
TGI (ACHN): 3.17 µM
GI50 (ACHN): 1.73 µM
CC50 (ACHN): 5.78 µM
GI50 (MCF7): 1.15 µM
CC50 (MCF7): 5.73 µM
TGI (MCF7): 2.56 µM
GI50 (OVCAR-8): 2.11 µM
CC50 (OVCAR-8): 16.5 µM
TGI (OVCAR-8): 4.74 µM
GI50 (SN12C): 1.96 µM
CC50 (SN12C): 9.26 µM
TGI (SN12C): 4.26 µM
GI50 (OVCAR-5): 1.85 µM
CC50 (OVCAR-5): 8.52 µM
TGI (OVCAR-5): 3.97 µM
Caspase-8 Conc (caspase-8): 2.20 ng/mL
caspase-8 increase compared to untreated control cell (caspase-8): 18 times
caspase-8 level (caspase-8): 2.20 ng/mL
Caspase-8 Fold Change (caspase-8; vs control): 18
GI50 (Melanoma subpanel): 1.77 µM
GI50 Selectivity Ratio (MID a/MID b) (Melanoma subpanel): 1.01
GI50 (Renal Cancer subpanel): 1.77 µM
GI50 Selectivity Ratio (MID a/MID b) (Renal Cancer subpanel): 1.01
LC50 (NCI-H460; Homo sapiens): 6.3 µM
GI50 (NCI-H460; Homo sapiens): 1.56 µM
TGI (NCI-H460): 3.13 µM
GI50 (OVCAR-4): 1.74 µM
CC50 (OVCAR-4): 6.23 µM
TGI (OVCAR-4): 3.29 µM
GI50 (NCI-H23): 1.93 µM
CC50 (NCI-H23): 10.8 µM
TGI (NCI-H23): 4.43 µM
GI50 (NCI/ADR-RES): 1.83 µM
CC50 (NCI/ADR-RES): 12.7 µM
TGI (NCI/ADR-RES): 4.43 µM
TGI (HT29): 5.47 µM
GI50 (HT29): 1.97 µM
CC50 (HT29): 44.1 µM
GI50 (SK-OV-3): 1.79 µM
CC50 (SK-OV-3): 11 µM
TGI (SK-OV-3): 4.31 µM
LC50 (SW-620; Homo sapiens): 7.43 µM
GI50 (SW-620; Homo sapiens): 1.83 µM
TGI (SW-620): 3.69 µM
GI50 (RXF 393): 1.61 µM
CC50 (RXF 393): 6.64 µM
TGI (RXF 393): 3.27 µM
GI50 (LOX IMVI): 1.57 µM
CC50 (LOX IMVI): 5.5 µM
TGI (LOX IMVI): 2.94 µM
GI50 (OVCAR-3): 1.84 µM
CC50 (OVCAR-3): 6.28 µM
TGI (OVCAR-3): 3.39 µM
GI50 (RPMI-8226): 1.16 µM
CC50 (RPMI-8226): 16.5 µM
TGI (RPMI-8226): 3.52 µM
TGI (EKVX): 3.68 µM
GI50 (EKVX): 1.82 µM
CC50 (EKVX): 7.43 µM
